# ChEMBL document CHEMBL4418308, “cGAS ANTAGONIST COMPOUNDS” (2017)
# Molecular target: Cyclic GMP-AMP synthase (Homo sapiens, UniProt Q8N884)
# Assay: Inhibition of recombinant His6-SUMO tagged human CGAS expressed in Escherichia coli BL21/pLys cells incubated for 20 mins by Kinase Glo chemiluminescence assay
# Chain of Cyclic GMP-AMP synthase (Q8N884 whole entry): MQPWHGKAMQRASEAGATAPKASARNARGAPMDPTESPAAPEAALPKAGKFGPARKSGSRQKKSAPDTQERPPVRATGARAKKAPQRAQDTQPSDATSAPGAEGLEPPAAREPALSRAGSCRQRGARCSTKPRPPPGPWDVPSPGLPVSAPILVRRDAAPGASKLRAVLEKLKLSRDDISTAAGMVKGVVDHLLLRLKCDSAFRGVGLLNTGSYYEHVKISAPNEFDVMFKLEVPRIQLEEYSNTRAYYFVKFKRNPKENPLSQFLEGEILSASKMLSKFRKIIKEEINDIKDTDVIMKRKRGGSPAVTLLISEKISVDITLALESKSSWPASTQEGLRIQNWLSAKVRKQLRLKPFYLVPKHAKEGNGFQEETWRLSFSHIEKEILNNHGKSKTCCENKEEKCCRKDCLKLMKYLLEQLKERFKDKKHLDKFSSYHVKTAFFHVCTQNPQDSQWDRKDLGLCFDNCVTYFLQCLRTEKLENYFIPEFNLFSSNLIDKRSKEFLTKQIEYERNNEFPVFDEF
row,SMILES,IC50 [µM]
1,CC(C)c1cc(/C=C2\SC(=O)N(C)C2=O)c(Br)cc1O,≥ 10
2,CC(Oc1cc(/C=C2\SC(=O)N(C)C2=O)c(Br)c(F)c1O)c1cncnc1 (stereo unspecified),≥ 10
3,CN1C(=O)S/C(=C\c2cc(OCC(=O)Nc3nncs3)c(O)c(F)c2Br)C1=O,0.5 to 10
4,Cc1ncc(COc2cc(/C=C3\SC(=O)N(C)C3=O)c(Br)c(F)c2O)cn1,0.5 to 10
5,CC(Oc1cc(/C=C2\SC(=O)N(C)C2=O)c(Br)c(F)c1Oc1cnc(N)s1)c1cnc(N)nc1 (stereo unspecified),0.5 to 10
6,CC(=O)c1cc(N)ccc1Oc1cc(/C=C2\SC(=O)N(C)C2=O)c(Br)c(F)c1O,≥ 10
7,CSc1nc([S+](C)[O-])ncc1COc1cc(/C=C2\Sc3ncccc3C2=O)c(Br)c(F)c1O (stereo unspecified),≤ 0.5
8,CN1C(=O)S/C(=C\c2cc(C(C)(F)F)c(O)cc2Br)C1=O,≥ 10
9,CN1C(=O)S/C(=C\c2cc(C(F)(F)F)c(O)cc2Br)C1=O,≤ 0.5
10,CSc1ccc(CCc2cc(/C=C3\SC(=O)N(C)C3=O)c(Br)cc2O)cc1,0.5 to 10
11,CN1C(=O)S/C(=C\c2cc(OCc3cnc(NC(=O)c4ccncc4)nc3)c(O)c(F)c2Br)C1=O,≤ 0.5
12,CN1C(=O)S/C(=C\c2cc3c(Cc4cnc(N)nc4)c[nH]c3cc2Br)C1=O,≥ 10
13,CN1C(=O)S/C(=C\c2cc(OCc3cnc(-n4ccnc4)nc3)c(O)cc2Br)C1=O,0.5 to 10
14,Cc1nc(N)ncc1C(C)Oc1cc(/C=C2\Sc3ncccc3C2=O)c(Br)c(F)c1O (stereo unspecified),≤ 0.5
15,CNc1ncc(COc2cc(/C=C3\SC(=O)N(C)C3=O)c(Br)c(F)c2O)cn1,≤ 0.5
16,CN1C(=O)S/C(=C\c2cc(CC(F)(F)F)c(O)cc2Br)C1=O,0.5 to 10
17,CN1C(=O)S/C(=C\c2cc(OCc3cnc(-n4cccn4)nc3)c(O)cc2Br)C1=O,0.5 to 10

row,SMILES,IC50 [µM]
1,CN1C(=O)S/C(=C\c2cc(OCC(F)(F)c3cnc(N)nc3)c(O)c(F)c2Br)C1=O,0.5 to 10
2,CC(C)c1cc(/C=C2\Sc3ncccc3C2=O)c(Br)cc1O,≥ 10
3,O=C1/C(=C/c2cc(C(F)(F)F)c(O)cc2Br)Sc2ncccc21,≤ 0.5
4,CN1C(=O)S/C(=C\c2cc(Oc3ccc(=O)[nH]c3)c(O)cc2Br)C1=O,0.5 to 10
5,COCCNc1ncc(C(C)Oc2cc(/C=C3\SC(=O)N(C)C3=O)c(Br)cc2O)cn1 (stereo unspecified),0.5 to 10
6,CN1C(=O)S/C(=C\c2cc(OCC3(c4cnc(N)nc4)CC3)c(O)c(F)c2Br)C1=O,0.5 to 10
7,COc1cc(/C=C2\SC(=O)N(C)C2=O)c(C#N)cc1O,≥ 10
8,CC(Oc1cc(/C=C2\SC(=O)N(C)C2=O)c(Br)cc1O)c1cnc(NCCO)nc1 (stereo unspecified),0.5 to 10
9,Cc1nc2c(Oc3cc(/C=C4\SC(=O)N(C)C4=O)c(Br)cc3O)cccc2o1,0.5 to 10
10,CN1C(=O)S/C(=C\c2cc(OCCc3ccncc3)c(O)cc2Br)C1=O,0.5 to 10
11,O=C1/C(=C/c2cc(OCc3cnc(NCc4ccccn4)nc3)c(O)cc2Br)Sc2ncccc21,≤ 0.5
12,O=C1/C(=C/c2cc(OCc3cnc(NCc4cccnc4)nc3)c(O)cc2Br)Sc2ncccc21,≤ 0.5
13,CC(Cc1cnc(N)nc1)Oc1cc(/C=C2\SC(=O)N(C)C2=O)c(Br)c(F)c1O (stereo unspecified),0.5 to 10
14,COc1cc(/C=C2\SC(=O)N(C)C2=O)c(Br)cc1Oc1nncs1,≥ 10
15,CN1C(=O)S/C(=C\c2cc3c(-c4ccc(N)cc4)c[nH]c3cc2Br)C1=O,0.5 to 10
16,CC(Oc1cc(CC2Sc3ncccc3C2=O)c(Br)c(F)c1O)c1cnc(Cl)nc1 (stereo unspecified),≥ 10

# The next lines start with the values.
row,IC50 [µM],SMILES
1,≥ 10,CN1C(=O)S/C(=C\c2cc(Oc3cccc(O)c3N)c(O)cc2Br)C1=O
2,≤ 0.5,CN1C(=O)S/C(=C\c2cc(OCc3cncnc3O)c(O)cc2Br)C1=O
3,≥ 10,CC(C)CNc1cncc(COc2cc(/C=C3\SC(=O)N(C)C3=O)c(Br)cc2O)c1
4,≥ 10,CN1C(=O)S/C(=C\c2cc(OCc3cncc(NCc4ccncc4)c3)c(O)cc2Br)C1=O
5,≥ 10,CN1C(=O)S/C(=C\c2cc(OCc3cnc(NCc4ccccn4)nc3)c(O)c(F)c2Br)C1=O
6,≥ 10,COc1cc(/C=C2\SC(=O)N(C)C2=O)c(Br)cc1Oc1cnc(NCc2cccnc2)s1
7,≥ 10,COc1nc(N)ncc1COc1cc(/C=C2\SC(=O)N(C)C2=O)c(Br)cc1O
8,≥ 10,COc1cc(/C=C2\SC(=O)N(C)C2=O)c(Br)cc1OCc1ccncc1
9,≥ 10,Cc1nc(N)nc(C)c1COc1cc(/C=C2\SC(=O)N(C)C2=O)c(Br)cc1O
10,≥ 10,CN1C(=O)S/C(=C\c2cc(OCc3cnc([S+](C)[O-])nc3Cl)c(O)cc2Br)C1=O (stereo unspecified)
11,≥ 10,CC(C)C(=O)Nc1cncc(COc2cc(/C=C3\SC(=O)N(C)C3=O)c(Br)cc2O)c1
12,≥ 10,CN1C(=O)S/C(=C\c2cc(OCc3cnc(S)nc3)c(O)cc2Br)C1=O
13,≥ 10,CN1C(=O)S/C(=C\c2cc(OCc3cn(-c4ccccc4)nn3)c(O)cc2Br)C1=O
14,≥ 10,CN1C(=O)S/C(=C\c2cc(OCc3cnc(S(C)(=O)=O)nc3Cl)c(O)cc2Br)C1=O
15,≥ 10,Cc1nc([S+](C)[O-])nc(C)c1COc1cc(/C=C2\SC(=O)N(C)C2=O)c(Br)cc1O (stereo unspecified)
16,≥ 10,COc1cc(/C=C2\SC(=O)N(C)C2=O)c(Br)cc1Oc1ccnc2ccccc12
17,≥ 10,CN1C(=O)S/C(=C\c2cc(Oc3cccc4ncccc34)c(O)cc2Br)C1=O
18,≥ 10,Cc1ncc(C(C)Oc2cc(/C=C3\SC(=O)N(C)C3=O)c(Br)cc2O)cn1 (stereo unspecified)
19,≥ 10,CN1C(=O)S/C(=C\c2cc(OCc3cnc(O)nc3)c(O)cc2Br)C1=O

row,IC50 [µM],SMILES
1,≥ 10,Cc1nc(N)ncc1C(C)Oc1cc(/C=C2\SC(=O)N(C)C2=O)c(Br)cc1O (stereo unspecified)
2,≥ 10,CN1CCN(c2ncc(COc3cc(/C=C4\SC(=O)N(C)C4=O)c(Br)cc3O)cn2)CC1
3,≥ 10,COc1cc(/C=C2\SC(=O)N(C)C2=O)c(Br)cc1Oc1ccncc1
4,≥ 10,CN1CCC(c2ncc(COc3cc(/C=C4\SC(=O)N(C)C4=O)c(Br)cc3O)cn2)CC1
5,≥ 10,CN1C(=O)S/C(=C\c2cc(OCc3cncc(NC(=O)c4ccncc4)c3)c(O)cc2Br)C1=O
6,≥ 10,CN1C(=O)S/C(=C\c2cc(OCc3cncc4ccccc34)c(O)cc2Br)C1=O
7,≥ 10,COc1cc(/C=C2\SC(=O)N(C)C2=O)c(Br)cc1Oc1cnc(NCc2ccncc2)s1
8,≥ 10,CN1C(=O)S/C(=C\c2cc(OCc3ccc4ncccc4c3)c(O)cc2Br)C1=O
9,≤ 0.5,CN1C(=O)S/C(=C\c2cc(OCc3cnc(N)nc3C(F)(F)F)c(O)cc2Br)C1=O
10,≥ 10,COc1cccc(Oc2cc(/C=C3\SC(=O)N(C)C3=O)c(Br)cc2O)c1N
11,≥ 10,CN1C(=O)S/C(=C\c2cc(OCc3cccc4cnccc34)c(O)cc2Br)C1=O
12,≤ 0.5,CN1C(=O)S/C(=C\c2cc(OCc3cnc(NCc4ccncc4)nc3)c(O)c(F)c2Br)C1=O
13,≥ 10,CN1C(=O)S/C(=C\c2cc(OCc3ccnc4ccccc34)c(O)cc2Br)C1=O
14,≥ 10,COc1nc(S(C)(=O)=O)ncc1COc1cc(/C=C2\SC(=O)N(C)C2=O)c(Br)cc1O
15,≥ 10,CN1C(=O)S/C(=C\c2cc(OCc3ccc4cccnc4c3)c(O)cc2Br)C1=O
16,≥ 10,CN1C(=O)S/C(=C\c2cc(OCc3cncc(NC(=O)c4cccnc4)c3)c(O)cc2Br)C1=O
17,≥ 10,COc1nc([S+](C)[O-])ncc1COc1cc(/C=C2\SC(=O)N(C)C2=O)c(Br)cc1O (stereo unspecified)
18,≥ 10,CN1C(=O)S/C(=C\c2cc(OCc3cncc(NCc4ccccn4)c3)c(O)cc2Br)C1=O
19,≥ 10,CN1C(=O)S/C(=C\c2cc(Oc3ccncc3)c(O)cc2Br)C1=O
